Values after ≈ are worked out from the molar mass of the structure shown.
Columns and labels:
Assay in all cases: Minimum Inhibitory Concentration (MIC), agar dilution, standard strains
[1] = test system: S. aureus 241; assay type: cell-based, Staphylococcus aureus; conditions: Table 1, Mueller-Hinton agar, 37° C., 20 hours; for MIC: Staphylococcus aureus, 241, read-out: Minimum Inhibitory Concentration, S. aureus 241
Protocol: (§1) The effectiveness of the compound according to the present invention was determined by obtaining Minimum Inhibitory Concentration (MIC) of the compounds prepared by the above examples (Compounds I-1 to I-41) and vancomycin, which is the known compound having a potent activity against gram-positive strains, as the control drug against the standard strains. Specifically, Minimum Inhibitory Concentration was obtained by diluting the test compound according to a double dilution method, dispersing them in Mueller-Hinton agar medium, inoculating each of the test strain having 10^7 cfu (colony forming unit) per ml in an amount of 2 μl to the medium and then incubating them at 37° C. for 20 hours. From the result of Minimum Inhibitory Concentration test, it can be seen that the compound according to the present invention has a good activity against major pathogenic microorganisms, which cause hospital infection, including MRSA strains.

[2] = test system: S. aureus 77; assay type: cell-based, Staphylococcus aureus; conditions: Table 1, Mueller-Hinton agar, 37° C., 20 hours; for MIC: Staphylococcus aureus, 77, read-out: Minimum Inhibitory Concentration, S. aureus 77
Protocol: as §1

[3] = test system: Staphylococcus aureus giorgio; assay type: cell-based; conditions: Table 1, Mueller-Hinton agar, 37° C., 20 hours; for MIC: Staphylococcus aureus, read-out: Minimum Inhibitory Concentration, Staphylococcus aureus giorgio
Protocol: as §1

[4] = test system: E. faecalis L239; assay type: cell-based; conditions: Table 1, Mueller-Hinton agar, 37° C., 20 hours; for MIC: Enterococcus faecalis, L239, read-out: Minimum Inhibitory Concentration, E. faecalis L239
Protocol: as §1

[5] = test system: S. epidermidis R005; assay type: cell-based; conditions: Table 1, Mueller-Hinton agar, 37° C., 20 hours; for MIC: Staphylococcus epidermidis, R005, read-out: Minimum Inhibitory Concentration, S. epidermidis R005
Protocol: as §1

Compound | Minimum Inhibitory Concentration, S. aureus 241 [1] | Minimum Inhibitory Concentration, S. aureus 77 [2] | Minimum Inhibitory Concentration, Staphylococcus aureus giorgio [3] | Minimum Inhibitory Concentration, E. faecalis L239 [4] | Minimum Inhibitory Concentration, S. epidermidis R005 [5] | MIC [1] | MIC [2] | MIC [3] | MIC [4] | MIC [5]
Nc1cc[n+](C/C=C/C2=C(C(=O)O)N3C(=O)[C@@H](NC(=O)CSc4cc(Cl)ccc4Cl)[C@H]3SC2)cn1 [Compound I-2, 4-amino-1-{(E)-3-[(6R,7R)-2-carboxy-7-({2-[(2,5-dichlorophenyl)sulfanyl]acetyl}amino)-8-oxo-5-thia-1-azabicyclo[4.2.0]oct-2-en-3-yl]-2-propenyl}pyrimidin-1-ium] | 4 µg/mL | 0.25 µg/mL | <0.008 µg/mL | 1 µg/mL | 0.25 µg/mL | – | – | – | – | –
Cc1c(N)nc(SC/C=C/C2=C(C(=O)O)N3C(=O)[C@@H](NC(=O)CSc4cc(Cl)ccc4Cl)[C@H]3SC2)nc1N [Compound I-26, (6R,7R)-3-{(E)-3-[(4,6-diamino-5-methyl-2-pyrimidinyl)sulfanyl]-1-propenyl}-7-({2-[(2,5-dichlorophenyl)sulfanyl]acetyl}amino)-8-oxo-5-thia-1-azabicyclo[4.2.0]oct-2-ene-2-carboxylic acid] | – | – | – | – | – | 16 µg/mL (≈ 26.1 µM) | 1 µg/mL (≈ 1.63 µM) | 0.13 µg/mL (≈ 0.212 µM) | 2 µg/mL (≈ 3.26 µM) | 2 µg/mL (≈ 3.26 µM)
Cc1nc(N)cc(N(C)C)[n+]1C/C=C/C1=C(C(=O)O)N2C(=O)[C@@H](NC(=O)CSc3cc(Cl)ccc3Cl)[C@H]2SC1 [Compound I-37, 4-amino-1-{(E)-3-[(6R,7R)-2-carboxy-7-({2-[(2,5-dichlorophenyl)sulfanyl]acetyl}amino)-8-oxo-5-thia-1-azabicyclo[4.2.0]oct-2-en-3-yl]-2-propenyl}-6-(dimethylamino)-2-methylpyrimidin-1-ium] | 4 µg/mL | 0.25 µg/mL | 0.016 µg/mL | 0.5 µg/mL | 0.25 µg/mL | – | – | – | – | –
Nc1ncnc(SC/C=C/C2=C(C(=O)O)N3C(=O)[C@@H](NC(=O)CSc4cc(Cl)ccc4Cl)[C@H]3SC2)c1N [Compound I-25, (6R,7R)-3-{(E)-3-[(5,6-diamino-4-pyrimidinyl)sulfanyl]-1-propenyl}-7-({2-[(2,5-dichlorophenyl)sulfanyl]acetyl}amino)-8-oxo-5-thia-1-azabicyclo[4.2.0]oct-2-ene-2-carboxylic acid] | – | – | – | – | – | 16 µg/mL (≈ 26.7 µM) | 0.5 µg/mL (≈ 0.834 µM) | 0.063 µg/mL (≈ 0.105 µM) | 2 µg/mL (≈ 3.34 µM) | 1 µg/mL (≈ 1.67 µM)
CNc1cc(N)nc(SC/C=C/C2=C(C(=O)O)N3C(=O)[C@@H](NC(=O)CSc4cc(Cl)ccc4Cl)[C@H]3SC2)n1 [Compound I-30, (6R,7R)-3-((E)-3-{[4-amino-6-(methylamino)-2-pyrimidinyl]sulfanyl}-1propenyl)-7-({2-[(2,5-dichlorophenyl)sulfanyl]acetyl}amino)-8-oxo-5-thia-1-azabicyclo [4.2.0]oct-2-ene-2-carboxylic acid] | – | – | – | – | – | 16 µg/mL (≈ 26.1 µM) | 0.5 µg/mL (≈ 0.815 µM) | 0.016 µg/mL (≈ 0.0261 µM) | 2 µg/mL (≈ 3.26 µM) | 0.5 µg/mL (≈ 0.815 µM)
O=C(CSc1cc(Cl)ccc1Cl)N[C@@H]1C(=O)N2C(C(=O)O)=C(/C=C/CSc3ncnc4[nH]ncc34)CS[C@H]12 [Compound I-27] | 2 µg/mL | 0.13 µg/mL | <0.008 µg/mL | 0.13 µg/mL | 0.13 µg/mL | – | – | – | – | –
Nc1cc(N)[n+](C/C=C/C2=C(C(=O)O)N3C(=O)[C@@H](NC(=O)CSc4cc(Cl)ccc4Cl)[C@H]3SC2)cn1 [Compound I-36] | 1 µg/mL | 0.13 µg/mL | <0.008 µg/mL | 0.25 µg/mL | 0.063 µg/mL | – | – | – | – | –
CSc1nc(C)cc(SC/C=C/C2=C(C(=O)O)N3C(=O)[C@@H](NC(=O)CSc4cc(Cl)ccc4Cl)[C@H]3SC2)n1 [Compound I-28, (6R,7R)-7-({2-[(2,5-dichlorophenyl)sulfanyl]acetyl}amino)-3-((E)-3-{[6-methyl-2-(methylsulfanyl)-4-pyrimidinyl]sulfanyl}-1propenyl)-8-oxo-5-thia-1-azabicyclo [4.2.0]oct-2-ene-2-carboxylic acid] | – | – | – | – | – | 32 µg/mL (≈ 50.8 µM) | 0.25 µg/mL (≈ 0.397 µM) | 0.016 µg/mL (≈ 0.0254 µM) | 0.5 µg/mL (≈ 0.794 µM) | 0.25 µg/mL (≈ 0.397 µM)
Nc1cc[n+](N)c(SCC2=C(C(=O)O)N3C(=O)[C@@H](NC(=O)CSc4cc(Cl)ccc4Cl)[C@H]3SC2)n1 [Compound I-6, 1,4-diamino-2-({[(6R,7R)-2-carboxy-7-({2-[(2,5-dichlorophenyl)sulfanyl]acetyl}amino)-8-oxo-5-thia-1-azabicyclo[4.2.0]oct-2-en-3-yl]methyl}sulfanyl)pyrimidin-1-ium] | 4 µg/mL | 0.031 µg/mL | <0.008 µg/mL | 4 µg/mL | 0.063 µg/mL | – | – | – | – | –
Nc1cc(SC/C=C/C2=C(C(=O)O)N3C(=O)[C@@H](NC(=O)CNc4cc(Cl)ccc4Cl)[C@H]3SC2)nc(N)n1 [Compound I-5] | 16 µg/mL | 0.5 µg/mL | 0.031 µg/mL | 1 µg/mL | 0.5 µg/mL | – | – | – | – | –
4,6-diamino-1-{(E)-3-[(6R,7R)-2-carboxy-7-({2-[(2,5-dichlorophenyl)sulfanyl]acetyl}amino)-8-oxo-5-thia-1-azabicyclo[4.2.0]oct-2-en-3-yl]-2-propenyl}-5-methylpyrimidin-1-ium [Compound I-40] | 8 µg/mL | 1 µg/mL | 0.016 µg/mL | 2 µg/mL | 0.25 µg/mL | – | – | – | – | –
C[n+]1c(N)cc(SC/C=C/C2=C(C(=O)O)N3C(=O)[C@@H](NC(=O)CSc4cc(Cl)ccc4Cl)[C@H]3SC2)nc1N [Compound I-22, (6R,7R)-2,6-diamino-4-({(E)-3-[2-carboxy-7-({2-[(2,5-dichlorophenyl)sulfanyl]acetyl}amino)-8-oxo-5-thia-1-azabicyclo[4.2.0]oct-2-en-3-yl]-2-propenyl}sulfanyl)-1-methylpyrimidin-1-ium] | 1 µg/mL | 0.063 µg/mL | <0.008 µg/mL | 0.25 µg/mL | 0.063 µg/mL | – | – | – | – | –
CNCc1c(N)nc(SC/C=C/C2=C(C(=O)O)N3C(=O)[C@@H](NC(=O)CSc4cc(Cl)ccc4Cl)[C@H]3SC2)[n+](C)c1N [Compound I-23, (6R,7R)-4,6-diamino-2-({(E)-3-[2-carboxy-7-({2-[(2,5-dichlorophenyl)sulfanyl]acetyl}amino)-8-oxo-5-thia-1-azabicyclo[4.2.0]oct-2-en-3-yl]-2-propenyl}sulfanyl)-1-methyl-5-[(methylamino)methyl]pyrimidin-1-ium] | 4 µg/mL | 0.25 µg/mL | 0.016 µg/mL | 1 µg/mL | 0.25 µg/mL | – | – | – | – | –
CC[n+]1c(N)cc(N)nc1SC/C=C/C1=C(C(=O)O)N2C(=O)[C@@H](NC(=O)CSc3cc(Cl)ccc3Cl)[C@H]2SC1 [Compound I-29, (6R,7R)-4,6-diamino-2-({(E)-3-[2-carboxy-7-({2-[(2,5-dichlorophenyl)sulfanyl]acetyl}amino)-8-oxo-5-thia-1-azabicyclo[4.2.0]oct-2-en-3-yl]-2-propenyl}sulfanyl)-1-ethylpyrimidin-1-ium] | 1 µg/mL | 0.063 µg/mL | <0.008 µg/mL | 0.13 µg/mL | 0.031 µg/mL | – | – | – | – | –
Nc1nc[n+](C/C=C/C2=C(C(=O)O)N3C(=O)[C@@H](NC(=O)CSc4cc(Cl)ccc4Cl)[C@H]3SC2)c2c1CCC2 [Compound I-34] | 4 µg/mL | 0.5 µg/mL | <0.008 µg/mL | 1 µg/mL | 0.13 µg/mL | – | – | – | – | –
4-amino-1-{(E)-3-[(6R,7R)-2-carboxy-7-({2-[(2,5-dichlorophenyl)sulfanyl]acetyl}amino)-8-oxo-5-thia-1-azabicyclo[4.2.0]oct-2-en-3-yl]-2-propenyl}-2-methyl pyrimidin-1-ium [Compound I-39] | 2 µg/mL | 0.25 µg/mL | <0.008 µg/mL | 0.5 µg/mL | 0.063 µg/mL | – | – | – | – | –
